Source: PubChem BioAssay AID1963427 (Molecular Pharmacology Branch, DTP, NCI, 2024)

Tested on: 317291-083-R-J1-PDC complex spheroid growth
Assay: Anticancer human tumor 317291-083-R-J1-PDC patient-derived soft tissue sarcoma cell line growth inhibition [Asc]
Details: for IC50: curve of first compound; for viability, T/C: stronger effect = lower value
In short: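 Stromal components (HUVEC and hMSC) are co-assembled with the cancer cells into multicellular spheroids. Drugs are then added singly or paired, at concentrations falling by half-log increments from a clinically achievable maximum, capped at 10 microM without known Cmax.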
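Note: compound exposure lasted seven days after spheroids formed for three days.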
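Throughout, for viability, T/C: 100% = DMSO vehicle control wells.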

Cc1nc(N2CCC3(CC2)COC(C)C3N)c(CO)nc1Sc1ccnc(N)c1Cl (configuration not stated) + CNC(C)C(=O)NC1CN(S(=O)(=O)c2cccc(S(=O)(=O)N3CCC4CCC(C(=O)NC(c5ccccc5)c5ccccc5)N4C(=O)C(NC(=O)C(C)NC)C3)c2)CCC2CCC(C(=O)NC(c3ccccc3)c3ccccc3)N2C1=O
IC50 (second compound 0.00316 µM): 2210 nM
IC50 (second compound 0.01 µM): 1150 nM
IC50 (second compound 0.0316 µM): 1960 nM
IC50 (second compound 0.1 µM): 89.3 nM
IC50 (second compound 0.316 µM): < 9.49 nM
IC50 (second compound 1 µM): < 9.49 nM
viability, T/C (second compound 0.00316 µM, first compound 0.00949 µM): 93.4%
viability, T/C (second compound 0.00316 µM, first compound 0.03 µM): 70.8%
viability, T/C (second compound 0.00316 µM, first compound 0.0949 µM): 80.5%
viability, T/C (second compound 0.00316 µM, first compound 0.3 µM): 66.7%
viability, T/C (second compound 0.00316 µM, first compound 0.949 µM): 70.2%
viability, T/C (second compound 0.00316 µM, first compound 3 µM): 41.9%
viability, T/C (second compound 0.01 µM, first compound 0.00949 µM): 75.5%
viability, T/C (second compound 0.01 µM, first compound 0.03 µM): 90.1%
viability, T/C (second compound 0.01 µM, first compound 0.0949 µM): 67.8%
viability, T/C (second compound 0.01 µM, first compound 0.3 µM): 70%
viability, T/C (second compound 0.01 µM, first compound 0.949 µM): 52.2%
viability, T/C (second compound 0.01 µM, first compound 3 µM): 36.2%
viability, T/C (second compound 0.0316 µM, first compound 0.00949 µM): 65.2%
viability, T/C (second compound 0.0316 µM, first compound 0.03 µM): 72.8%
viability, T/C (second compound 0.0316 µM, first compound 0.0949 µM): 71.3%
viability, T/C (second compound 0.0316 µM, first compound 0.3 µM): 63.8%
viability, T/C (second compound 0.0316 µM, first compound 0.949 µM): 53.2%
viability, T/C (second compound 0.0316 µM, first compound 3 µM): 47.2%
viability, T/C (second compound 0.1 µM, first compound 0.00949 µM): 70.3%
viability, T/C (second compound 0.1 µM, first compound 0.03 µM): 51.2%
viability, T/C (second compound 0.1 µM, first compound 0.0949 µM): 54.1%
viability, T/C (second compound 0.1 µM, first compound 0.3 µM): 39.8%
viability, T/C (second compound 0.1 µM, first compound 0.949 µM): 39.9%
viability, T/C (second compound 0.1 µM, first compound 3 µM): 27.6%
viability, T/C (second compound 0.316 µM, first compound 0.00949 µM): 43.5%
viability, T/C (second compound 0.316 µM, first compound 0.03 µM): 39.8%
viability, T/C (second compound 0.316 µM, first compound 0.0949 µM): 38.1%
viability, T/C (second compound 0.316 µM, first compound 0.3 µM): 37.7%
viability, T/C (second compound 0.316 µM, first compound 0.949 µM): 32.4%
viability, T/C (second compound 0.316 µM, first compound 3 µM): 22.8%
viability, T/C (second compound 1 µM, first compound 0.00949 µM): 29.8%
viability, T/C (second compound 1 µM, first compound 0.03 µM): 22.5%
viability, T/C (second compound 1 µM, first compound 0.0949 µM): 29.8%
viability, T/C (second compound 1 µM, first compound 0.3 µM): 23.1%
viability, T/C (second compound 1 µM, first compound 0.949 µM): 18.5%
viability, T/C (second compound 1 µM, first compound 3 µM): 19.3%
